The source of these data is ChEMBL document CHEMBL1148031, “Rational design of inhibitors of VirA-VirG two-component signal transduction” (Bioorg Med Chem Lett, 2007).

A word on the IC50: it is the concentration at which inhibition is half-maximal.

This experiment deals with Agrobacterium tumefaciens. The experiment can be described thus: Inhibition of acetosyringone-induced virB::lacZ expression in Agrobacterium tumefaciens A348/pSW209. In kind it is functional, organism-based.

For `COc1cccc2c1C(=O)OC2O` (configuration not stated), the half-maximal inhibitory concentration (IC50) is greater than 200 µM.

With `COc1ccc(N(O)C(=O)C=O)c(O)c1`, the IC50 came to 30 µM.

The compound `O=CCC(=O)N(O)c1ccccc1` showed a half-maximal inhibitory concentration (IC50) greater than 400 µM.

For `O=CC(=O)Oc1ccccc1`, the concentration for half-maximal inhibition (IC50) is 25 µM.

Compound `COc1ccccc1C(=O)C=O` gave an IC50 of 34 µM.

In turn, `O=CC(=O)Nc1ccccc1` displayed a half-maximal inhibitory concentration (IC50) of 35 µM.

In turn, `COc1cc(OC)c(C=O)c(C(C)=O)c1` returned an IC50 of 25 µM.

Compound `CCCCC(=O)c1c(OC)cc(OC)cc1C(=O)O` yielded an IC50 greater than 200 µM.

Compound `COc1cc(OC)c(C(C)=O)c(C(C)=O)c1` displayed an IC50 greater than 200 µM.

Consider `COc1cc(C=O)cc(OC)c1`, for which the IC50 is greater than 200 µM.

In the case of `COc1cc(CC(=O)O)c(C=O)c(OC)c1`, the IC50 was greater than 200 µM.

`COc1cc(OC)c2c(c1N)C(=O)OC2O` (configuration not stated) registered an IC50 greater than 200 µM.

`COc1cc(OC)c2c(c1NC(C)=O)C(=O)OC2O` (configuration not stated) showed a 50% inhibitory concentration (IC50) greater than 200 µM.

`O=C1OC(O)c2ccccc21` (configuration not stated) gave a half-maximal inhibitory concentration (IC50) of 25 µM.

In turn, `COc1cc(OC)c(C(C)=O)c(C(=O)O)c1` displayed an IC50 greater than 200 µM.

`O=Cc1ccccc1C(=O)O` displayed a 50% inhibitory concentration (IC50) greater than 200 µM.

The compound `COc1ccc(C=O)c(OC)c1` had an IC50 greater than 200 µM.

The compound `CCCCC(=O)c1ccccc1C=O` yielded a concentration for half-maximal inhibition (IC50) of 20 µM.

`CCOc1cc(OCC)c2c(c1)C(=O)OC2O` (configuration not stated) gave a 50% inhibitory concentration (IC50) of 8 µM.

The compound `COc1cc(C=O)c(C(C)=O)c(OC)c1` displayed an IC50 of 25 µM.

`CCCCC(=O)c1cc(OC)cc(OC)c1C=O`: it took 10 µM to reach half-maximal inhibition (IC50).

For `CC(=O)c1ccccc1C=O`, the half-maximal inhibitory concentration (IC50) is 25 µM.

`COc1ccc2c(c1)C(O)OC2=O` (configuration not stated) came in with an IC50 of 41 µM. Compared with the last compound, the IC50 is about 1.6-fold higher.

`COc1cc(OC)c2c(c1O)C(=O)OC2O` (configuration not stated): the half-maximal inhibitory concentration (IC50) was greater than 100 µM.

As for `COc1ccc(N(OC)C(=O)C=O)c(O)c1`, the IC50 is less than 1 µM.

For the compound `O=CC(=O)N(O)c1ccccc1`, the midpoint of inhibition, the IC50, lay at 25 µM. That is a double-digit micromolar value.

In turn, `COc1ccc2c(c1)C(=O)OC2O` (configuration not stated) showed an IC50 greater than 200 µM.

In turn, `COc1cc(OC)c([N+](=O)[O-])c2c1C(O)OC2=O` (configuration not stated) yielded a half-maximal inhibitory concentration (IC50) greater than 200 µM.

As for `CCCCC(=O)c1c(C=O)cc(OC)cc1OC`, the half-inhibitory concentration (IC50) was 10 µM. This lies in the double-digit micromolar range.

Turning to `COc1cccc2c1C(O)OC2=O` (configuration not stated), the half-inhibitory concentration (IC50) was greater than 200 µM.

`COc1cc(OC)c(C=O)c(C(=O)O)c1` returned a concentration for half-maximal inhibition (IC50) of 8 µM.

Consider `O=CC(=O)c1ccccc1` [PHENYLGLYOXAL], for which 40 µM corresponded to half-maximal inhibition (IC50).
